Data: patent US20240082424A1, “CLATHRATE IN WHICH EQUOL IS INCLUDED IN CYCLODEXTRIN, EQUOL-ABSORBENT COMPOSITION CONTAINING SAID CLATHRATE, AND PRODUCTION METHOD THEREFOR” (DAICEL CORPORATION, priority 2020, published 2024)
≈ marks a conversion by molar mass, not a printed value.

Tests used:
[1] = Solubility test (equol concentration dissolved in water); format: physicochemical; settings: thermodynamic from solid; 300 mg dried product A-1 or 10 mg equol in 10 mL water, stirred at room temperature 2 hours, 0.2-μm filtered; read-out: concentration of equol in the solution (solubility in water)
Description: The dried product A-1 containing an equol clathrate prepared in <<Preparation of Equol Clathrate>> described above was subjected to a solubility test. As a control, a solubility test was performed on equol (available from LC Laboratories) alone.
Specifically, solubility tests were conducted under the following conditions.
300 mg of the dried product A-1 containing an equol clathrate was weighed and mixed with 10 mL of water. Then, the mixture was stirred at room temperature for 2 hours. This liquid was filtered through a 0.2-μm filter, resulting in a solution B-1 of the dried product A-1 containing an equol clathrate. The equol concentration of the solution B-1 was analyzed.
Meanwhile, 10 mg of equol (available from LC Laboratories) was weighed and subjected to the same operation, resulting in a liquid C-1 containing equol alone. The concentration of equol dissolved in the solution C-1 was analyzed.

[2] = Pharmacokinetics (PK) analysis by oral administration in rats; format: in vivo, Crl:CD (SD) rats; settings: single oral dose, rat plasma, 0.5% CMC suspension, equol clathrate 100 mg/kg, equol 6.3 mg/kg
Description: The equol clathrate A-1 prepared in <<Preparation of Equol Clathrate>> was subjected to pharmacokinetics (PK) analysis using 6-week-old Crl:CD (SD) rats by oral administration. As a control, pharmacokinetics (PK) analysis of equol (available from LC Laboratories) alone was also performed.
Specifically, the administered dose of the equol clathrate A-1 was 100 mg/kg, whereas the dose of equol (available from LC Laboratories) was 6.3 mg/kg, an amount considered to be equivalent to 100 mg/kg of the equol clathrate A-1.
The administered dose of the equol clathrate A-1 and the administered dose of equol were each administered as a single oral dose to 3 animals/group. The test substance used for the administration sample was suspended in 0.5% CMC aqueous solution, and the administered volume was 10 mL/kg.
PK was measured using plasma, and blood was collected at 0 min, 30 min, 1 h, 2 h, 6 h, 12 h, and 24 h. After 24 hours of blood collection, the rats were euthanized.
Note that, in Table 2, “Cmax” means maximum blood concentration, “Tmax” means time to reach Cmax, and “AUC0-24” means area.

solubility at 2 h [1]: 100 µg/mL (≈ 413 µM)
Cmax ([2]; Crl:CD (SD), read-out: Cmax (maximum blood concentration)): 41.6 ng/mL
AUC0-24 (area) [2]: 363 ng·h/mL
SMILES: Oc1ccc([C@H]2COc3cc(O)ccc3C2)cc1 [equol]
